Laboratory results reported in ChEMBL document CHEMBL5584309, “Discovery of Novel Mcl-1 Inhibitors with a 3-Substituted-1H-indole-1-yl Moiety Binding to the P1-P3 Pockets to Induce Apoptosis in Acute Myeloid Leukemia Cells” (J Med Chem, 2024).
pIC50, pKi: −log10 of the molar value.

Columns and labels:
[1] = test system: HL-60; test: Antiproliferative activity against human HL-60 cells assessed as growth inhibition measured after 72 hrs by CCK-8 assay; assay type: functional, cell-based; settings: HL-60, 72 h
[2] = target: T1, Induced myeloid leukemia cell differentiation protein Mcl-1 (Homo sapiens, UniProt Q07820); test: Binding affinity to Mcl-1 (unknown origin) pre-incubated for 30 mins followed by addition FAM-peptide further incubated for 20 mins by fluorescence polarization-based binding assay; settings: for pKi: read-out: Ki
T1 sequence (Q07820 whole entry): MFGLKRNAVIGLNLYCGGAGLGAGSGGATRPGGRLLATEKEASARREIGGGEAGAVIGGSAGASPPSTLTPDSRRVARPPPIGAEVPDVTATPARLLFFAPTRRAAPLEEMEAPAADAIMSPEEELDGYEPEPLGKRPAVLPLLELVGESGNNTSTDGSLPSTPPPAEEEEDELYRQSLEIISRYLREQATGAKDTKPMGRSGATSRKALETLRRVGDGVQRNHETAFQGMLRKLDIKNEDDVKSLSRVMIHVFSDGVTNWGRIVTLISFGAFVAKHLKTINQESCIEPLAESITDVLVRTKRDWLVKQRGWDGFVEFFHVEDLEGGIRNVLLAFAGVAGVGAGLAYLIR

[3] = target: Apoptosis regulator Bcl-2 (Homo sapiens, UniProt P10415); test: Binding affinity to Bcl-2 (unknown origin) pre-incubated for 30 mins followed by addition FAM-peptide further incubated for 20 mins by fluorescence polarization-based binding assay
Apoptosis regulator Bcl-2, sequence (P10415 whole entry): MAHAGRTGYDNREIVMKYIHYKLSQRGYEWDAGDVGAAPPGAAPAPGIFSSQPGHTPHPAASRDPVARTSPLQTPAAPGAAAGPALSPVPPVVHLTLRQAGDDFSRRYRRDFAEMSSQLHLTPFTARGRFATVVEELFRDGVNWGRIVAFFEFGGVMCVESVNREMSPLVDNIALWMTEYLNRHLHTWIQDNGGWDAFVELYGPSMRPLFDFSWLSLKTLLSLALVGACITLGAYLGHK

[4] = target: Bcl-2-like protein 1 (Homo sapiens, UniProt Q07817); test: Binding affinity to Bcl-xL (unknown origin) pre-incubated for 30 mins followed by addition FAM-peptide further incubated for 20 mins by fluorescence polarization-based binding assay
Bcl-2-like protein 1, sequence (Q07817 whole entry): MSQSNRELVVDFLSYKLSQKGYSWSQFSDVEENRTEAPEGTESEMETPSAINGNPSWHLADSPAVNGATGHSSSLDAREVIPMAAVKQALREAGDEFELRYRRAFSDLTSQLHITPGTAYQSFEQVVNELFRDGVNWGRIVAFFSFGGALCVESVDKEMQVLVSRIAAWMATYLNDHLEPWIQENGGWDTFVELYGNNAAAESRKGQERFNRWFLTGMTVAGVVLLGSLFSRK

[5] = target: T2, Bcl-2-related protein A1 (Homo sapiens, UniProt Q16548); test: Binding affinity to Bfl-1 (unknown origin) pre-incubated for 30 mins followed by addition FAM-peptide further incubated for 20 mins by fluorescence polarization-based binding assay
T2 sequence (Q16548 whole entry): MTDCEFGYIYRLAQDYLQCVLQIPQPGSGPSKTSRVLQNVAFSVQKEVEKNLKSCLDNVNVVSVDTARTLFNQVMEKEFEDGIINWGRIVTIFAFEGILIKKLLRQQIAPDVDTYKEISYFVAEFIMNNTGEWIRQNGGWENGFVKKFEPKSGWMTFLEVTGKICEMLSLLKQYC

[6] = target: T1, Induced myeloid leukemia cell differentiation protein Mcl-1; test: Binding affinity to human MCL-1 measured by competition against fluorescently labelled BH3 - Bid measured after 6 hrs by fluorescent polarization assay
[7] = Metabolic stability in rat liver microsomes assessed as half life by LC-MS/MS analysis; assay type: ADME, Microsome; settings: liver microsomes

Row | pIC50 [1] | pKi [2] | SMILES | further results
1 | < 4.30 |  | Cc1cc(OCCCc2c(C(=O)O)[nH]c3ccccc23)cc(C)c1Cl | 
2 | 4.67 | 6.82 | Cc1cc(OCCCc2c(C(=O)O)n(CCN3CCOCC3)c3c(-c4ccccc4Cn4ccc5ccccc54)cccc23)cc(C)c1Cl | 
3 | 5.10 | 7.54 | Cc1cc(OCCCc2c(C(=O)O)n(CCN3CCOCC3)c3c(-c4ccccc4Cn4cc(CCNC(=O)c5ccc(OC(F)(F)F)cc5)c5ccccc54)cccc23)cc(C)c1Cl | pIC50 [3]: < 4.00; pIC50 [4]: < 4.00; pIC50 [5]: < 5.00
4 | 4.50 | 6.19 | Cc1cc(OCCCc2c(C(=O)O)[nH]c3c(-c4ccccc4CN(C)c4ccccc4)cccc23)cc(C)c1Cl | 
5 | 5.05 | 7.32 | Cc1cc(OCCCc2c(C(=O)O)n(CCN3CCOCC3)c3c(-c4ccccc4Cn4cc(CCNS(=O)(=O)c5ccc(F)cc5)c5ccccc54)cccc23)cc(C)c1Cl | 
6 | 4.32 | 6.47 | Cc1cc(OCCCc2c(C(=O)O)[nH]c3c(-c4c(C(=O)NCC5CC5)nn(C)c4COc4ccccc4)cccc23)cc(C)c1Cl | 
7 | 4.55 | 6.41 | COc1ccc(OCc2c(-c3cccc4c(CCCOc5cc(C)c(Cl)c(C)c5)c(C(=O)O)[nH]c34)c(C(=O)Nc3ccccc3F)nn2C)cc1 | 
8 | 4.99 | 7.23 | Cc1ccccc1C(=O)NCCc1cn(Cc2ccccc2-c2cccc3c(CCCOc4cc(C)c(Cl)c(C)c4)c(C(=O)O)n(CCN4CCOCC4)c23)c2ccccc12 | 
9 | 4.54 | 6.62 | COc1ccccc1OCc1c(-c2cccc3c(CCCOc4cc(C)c(Cl)c(C)c4)c(C(=O)O)[nH]c23)c(C(=O)NCC2CC2)nn1C | 
10 | 4.82 | 6.92 | Cc1cc(OCCCc2c(C(=O)O)n(CCN3CCOCC3)c3c(-c4ccccc4Cn4ccc5c(C)cccc54)cccc23)cc(C)c1Cl | 
11 | 4.89 | 7.01 | Cc1cc(OCCCc2c(C(=O)O)n(CCN3CCOCC3)c3c(-c4ccccc4Cn4cc(CCNC(=O)CCC(F)(F)F)c5ccccc54)cccc23)cc(C)c1Cl | 
12 | 5.10 | 7.43 | Cc1cc(OCCCc2c(C(=O)O)n(CCN3CCOCC3)c3c(-c4ccccc4Cn4cc(CCNC(=O)c5ccc(F)cc5)c5ccccc54)cccc23)cc(C)c1Cl | pIC50 [3]: < 4.00; pIC50 [4]: < 4.00; pIC50 [5]: < 5.00
13 |  |  | CC1(C)CC[C@@H](OC(=O)/C=C/c2ccccc2)C2C(C=O)C(C=O)C[C@H](O)[C@H]21 (some centres not stated) | pKi [6]: 6.52
14 | 4.51 | 7.29 | Cc1cc(OCCCc2c(C(=O)O)n(CCN3CCOCC3)c3c(-c4ccccc4Cn4cc(CCNC(=O)c5ccc(Br)cc5)c5ccccc54)cccc23)cc(C)c1Cl | 
15 | < 4.30 |  | Cc1cc(OCCCc2c(C(=O)O)n(CCN3CCOCC3)c3c(-c4ccccc4Cn4cc(CCNC(=O)/C=C/c5ccc(Cl)c(Cl)c5)c5ccccc54)cccc23)cc(C)c1Cl | Ki [2]: Not Active
16 | 4.90 | 7.26 | Cc1cc(OCCCc2c(C(=O)O)n(CCN3CCOCC3)c3c(-c4ccccc4Cn4cc(CCNC(=O)c5ccncc5F)c5ccccc54)cccc23)cc(C)c1Cl | 
17 |  |  | CC(C)=CCC[C@]1(C)C=Cc2c(O)c3c(c(CC=C(C)C)c2O1)O[C@]12C(=C[C@@H]4C[C@H]1C(C)(C)O[C@@]2(C/C=C(/C)C(=O)O)C4=O)C3=O [GAMBOGIC ACID] | pIC50 [3]: 6.80; pIC50 [4]: 6.30; pIC50 [5]: 6.30
18 | 4.52 | 7.24 | Cc1cc(OCCCc2c(C(=O)O)n(CCN3CCOCC3)c3c(-c4ccccc4Cn4cc(CCNC(=O)c5ccoc5)c5ccccc54)cccc23)cc(C)c1Cl | 
19 | 4.36 | 6.62 | Cc1cc(OCCCc2c(C(=O)O)[nH]c3c(-c4ccccc4Cn4ccc5ccccc54)cccc23)cc(C)c1Cl | 
20 | 4.50 | 6.72 | C=CC(=O)NCCc1cn(Cc2ccccc2-c2cccc3c(CCCOc4cc(C)c(Cl)c(C)c4)c(C(=O)O)n(CCN4CCOCC4)c23)c2ccccc12 | 
21 | 4.85 | 7.25 | Cc1cc(OCCCc2c(C(=O)O)n(CCN3CCOCC3)c3c(-c4ccccc4Cn4cc(CCNC(=O)c5ccccc5C(F)(F)F)c5ccccc54)cccc23)cc(C)c1Cl | 
22 | 4.52 | 6.66 | COc1ccc(OCc2c(-c3cccc4c(CCCOc5cc(C)c(Cl)c(C)c5)c(C(=O)O)[nH]c34)c(C(=O)NCC3CC3)nn2C)cc1 | 
23 |  |  | O=C(O)Cc1ccccc1Nc1c(Cl)cccc1Cl [DICLOFENAC] | half-life [7]: 11.7 min

Row | pIC50 [1] | pKi [2] | SMILES | further results
24 | 4.72 | 6.82 | Cc1cc(OCCCc2c(C(=O)O)[nH]c3c(-c4c(C(=O)NCC5CC5)nn(C)c4Cn4cc(CCNC(=O)OC(C)(C)C)c5ccccc54)cccc23)cc(C)c1Cl | 
25 | 4.81 | 7.05 | Cc1cc(OCCCc2c(C(=O)O)n(CCN3CCOCC3)c3c(-c4ccccc4Cn4cc(C)c5ccccc54)cccc23)cc(C)c1Cl | 
26 | 4.98 | 7.00 | Cc1cc(OCCCc2c(C(=O)O)[nH]c3c(-c4c(C(=O)NCC5CC5)nn(C)c4Cn4cc(C)c5ccccc54)cccc23)cc(C)c1Cl | 
27 | 4.85 | 7.37 | Cc1cc(OCCCc2c(C(=O)O)n(CCN3CCOCC3)c3c(-c4ccccc4Cn4cc(CCNC(=O)c5c(C)cccc5F)c5ccccc54)cccc23)cc(C)c1Cl | 
28 | 4.68 | 6.08 | COc1ccc(OCc2c(-c3cccc4c(CCCOc5cc(C)c(Cl)c(C)c5)c(C(=O)O)[nH]c34)c(C(=O)NC3CCOCC3)nn2C)cc1 | 
29 | 5.12 | 7.35 | Cc1cc(OCCCc2c(C(=O)O)n(CCN3CCOCC3)c3c(-c4ccccc4Cn4cc(CCNC(=O)c5ccc(Cl)cc5)c5ccccc54)cccc23)cc(C)c1Cl | pIC50 [3]: < 4.00; pIC50 [4]: < 4.00; pIC50 [5]: < 5.00
30 | 4.55 | 6.92 | Cc1cc(OCCCc2c(C(=O)O)n(CCN3CCOCC3)c3c(-c4ccccc4Cn4cc(CCNC(=O)c5ccncn5)c5ccccc54)cccc23)cc(C)c1Cl | 
31 | 4.85 | 7.02 | COc1cccc2c1ccn2Cc1ccccc1-c1cccc2c(CCCOc3cc(C)c(Cl)c(C)c3)c(C(=O)O)n(CCN3CCOCC3)c12 | 
32 | 4.41 | 6.80 | Cc1ccc2c(ccn2Cc2ccccc2-c2cccc3c(CCCOc4cc(C)c(Cl)c(C)c4)c(C(=O)O)n(CCN4CCOCC4)c23)c1 | 
33 | 4.46 | 6.31 | COc1ccc(OCc2c(-c3cccc4c(CCCOc5cc(C)c(Cl)c(C)c5)c(C(=O)O)[nH]c34)c(C(=O)NCC3CCOCC3)nn2C)cc1 | 
34 | 4.46 | 6.74 | Cc1cc(OCCCc2c(C(=O)O)[nH]c3c(-c4c(C(=O)NCC5CC5)nn(C)c4COc4ccc(C=O)cc4)cccc23)cc(C)c1Cl | 
35 | 4.77 | 7.17 | Cc1cc(OCCCc2c(C(=O)O)n(CCN3CCOCC3)c3c(-c4ccccc4Cn4cc(CCNC(=O)c5ccccc5Br)c5ccccc54)cccc23)cc(C)c1Cl | 
36 | 4.79 | 6.82 | COc1ccc2c(ccn2Cc2ccccc2-c2cccc3c(CCCOc4cc(C)c(Cl)c(C)c4)c(C(=O)O)n(CCN4CCOCC4)c23)c1 | 
37 | 5.05 | 6.82 | Cc1ccc2c(ccn2Cc2c(-c3cccc4c(CCCOc5cc(C)c(Cl)c(C)c5)c(C(=O)O)[nH]c34)c(C(=O)NCC3CC3)nn2C)c1 | 
38 | 4.55 | 6.28 | COc1ccc(CN(C)C(=O)c2nn(C)c(COc3ccc(OC)cc3)c2-c2cccc3c(CCCOc4cc(C)c(Cl)c(C)c4)c(C(=O)O)[nH]c23)cc1 | 
39 | < 4.30 | 6.43 | COc1cccc(OCc2c(-c3cccc4c(CCCOc5cc(C)c(Cl)c(C)c5)c(C(=O)O)[nH]c34)c(C(=O)NCC3CC3)nn2C)c1 | 
40 | 4.49 | 6.59 | Cc1cc(OCCCc2c(C(=O)O)[nH]c3c(-c4c(C(=O)NCC5CC5)nn(C)c4COc4ccc(OC(F)(F)F)cc4)cccc23)cc(C)c1Cl | 
41 | 4.91 | 7.06 | Cc1cc(OCCCc2c(C(=O)O)n(CCN3CCOCC3)c3c(-c4ccccc4Cn4cc(CCNC(=O)c5cccc(Br)c5)c5ccccc54)cccc23)cc(C)c1Cl | 
42 | 4.46 | 7.57 | Cc1cc(OCCCc2c(C(=O)O)n(CCN3CCOCC3)c3c(-c4ccccc4Cn4cc(CCNC(=O)c5ccc(C=O)cc5)c5ccccc54)cccc23)cc(C)c1Cl | 
43 | < 4.30 | 5.92 | Cc1cc(OCCCc2c(C(=O)O)n(CCN3CCOCC3)c3c(-c4ccccc4Cn4cc(CCNCC(N)=O)c5ccccc54)cccc23)cc(C)c1Cl | 
44 | 4.74 | 7.22 | Cc1cc(OCCCc2c(C(=O)O)n(CCN3CCOCC3)c3c(-c4ccccc4Cn4cc(CCNC(=O)CC(F)(F)F)c5ccccc54)cccc23)cc(C)c1Cl | 
45 | < 4.30 | 6.59 | COc1ccc(OCc2c(-c3cccc4c(CCCOc5cc(C)c(Cl)c(C)c5)c(C(=O)O)[nH]c34)c(C(=O)N(C)CCNC(=O)OC(C)(C)C)nn2C)cc1 | 
